The values that follow come from patent publication US20110224210A1, “NOVEL BIS-AMIDES AS ANTI-MALARIAL AGENTS” (priority 2008, published 2011).

Each structure is given as a SMILES string.

The test relates to P. falciparum K1 (strain resistant to chloroquine and pyrimethamine), erythrocytic stages. Kind of test: Plasmodium falciparum in vitro assay, [3H] hypoxanthine incorporation. Type of test: cell-based. The following applies: Plasmodium falciparum, K1, P. falciparum strain K1; [3H] hypoxanthine incorporation; read-out: IC50 (nM) on K1. In short, it runs like this:
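Chloroquine/pyrimethamine-resistant K1 erythrocytic cultures (2.5% haematocrit, 0.3% parasitaemia, hypoxanthine-free RPMI with Albumax) exposed to seven doubling dilutions at 37 °C under low O2.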
Regarding `Cc1c(C=CC(=O)N(Cc2ccc(-c3ccccn3)cc2)[C@@H](Cc2ccccc2)C(=O)N2CCC(N(C)C)CC2)cnn1C` [Example 18, (S)-N-[1-Benzyl-2-(4-dimethylamino-piperidin-1-yl)-2-oxo-ethyl]-3-(1,5-dimethyl-1H-pyrazol-4-yl)-N-(4-pyridin-2-yl-benzyl)-acrylamide], the IC50 amounted to 273 nM. For `O=C(NCCN1CCOCC1)[C@H](Cc1ccccc1)N(Cc1ccc(-c2ccccn2)cc1)C(=O)C=Cc1ccc(C(F)(F)F)cc1` [Example 151] the value was 373 nM; for `COCCN(C)C(=O)[C@H](Cc1ccccc1)N(Cc1ccc(-c2cncnc2)cc1)C(=O)C=Cc1csnn1` [Example 125, (S)-N-{1-[(2-Methoxy-ethyl)-methyl-carbamoyl]-2-phenyl-ethyl}-N-(4-pyrimidin-5-yl-benzyl)-3-[1,2,3]thiadiazol-4-yl-acrylamide], 439 nM. For `Cc1nc(C)c(C=CC(=O)N(Cc2ccc(-c3cncnc3)cc2)[C@@H](Cc2ccccc2)C(=O)N2CCC(N(C)C)CC2)s1` [Example 37, (S)-N-[1-Benzyl-2-(4-dimethylamino-piperidin-1-yl)-2-oxo-ethyl]-3-(2,4-dimethyl-thiazol-5-yl)-N-(4-pyrimidin-5-yl-benzyl)-acrylamide] the value was 279 nM; for `CN(C)C1CCN(C(=O)[C@H](Cc2ccccc2)N(Cc2ccc(N3CCOCC3)nc2)C(=O)C=Cc2ccc(C(F)(F)F)cc2)CC1` [Example 136, (S)-N-[1-Benzyl-2-(4-dimethylamino-piperidin-1-yl)-2-oxo-ethyl]-N-(6-morpholin-4-yl-pyridin-3-ylmethyl)-3-(4-trifluoromethyl-phenyl)-acrylamide], 74 nM. To `CC(C)Oc1ccc(CN(C)CCN(C)C(=O)[C@H](Cc2ccccc2)N(Cc2ccc(N3CCOCC3)cc2)C(=O)C=Cc2ccc(C(F)(F)F)cc2)cc1` [Example 262, (S)-N-[1-({2-[(4-Isopropoxy-benzyl)-methyl-amino]-ethyl}-methyl-carbamoyl)-2-phenyl-ethyl]-N-(4-morpholin-4-yl-benzyl)-3-(4-trifluoromethyl-phenyl)-acrylamide] belongs 17 nM. On to `CC(=O)N1CCN(c2ccc(CN(C(=O)C=Cc3ccc(C(F)(F)F)cc3)[C@@H](Cc3ccccc3)C(=O)N(C)CCOCc3cc(C)on3)cc2)CC1` [Example 204, (S)-N-[4-(4-Acetyl-piperazin-1-yl)-benzyl]-N-(1-{methyl-[2-(5-methyl-isoxazol-3-ylmethoxy)-ethyl]-carbamoyl}-2-phenyl-ethyl)-3-(4-trifluoromethyl-phenyl)-acrylamide], for which the IC50 worked out at 9 nM. To `CN(Cc1ccc(N2CCCCC2=O)cc1)C(=O)[C@H](Cc1ccccc1)N(Cc1ccc(N2CCOCC2)cc1)C(=O)C=Cc1ccc(C(F)(F)F)nc1` [Example 274] belongs 63 nM.

For `CC(=O)N1CCN(c2ccc(CN(C(=O)C=Cc3ccc(C(F)(F)F)cc3)[C@@H](Cc3ccccc3)C(=O)N(C)CCN(C)Cc3ccccc3)cc2)CC1` [Example 254, (S)-N-[4-(4-Acetyl-piperazin-1-yl)-benzyl]-N-(1-{[2-(benzyl-methyl-amino)-ethyl]-methyl-carbamoyl}-2-phenyl-ethyl)-3-(4-trifluoromethyl-phenyl)-acrylamide], the IC50 is 76 nM. To `COCCN(C)C(=O)[C@H](Cc1ccccc1)N(Cc1ccc(-c2cncnc2)cc1)C(=O)C=Cc1ccc(Cl)cn1` [Example 127, (S)-3-(5-Chloro-pyridin-2-yl)-N-{1-[(2-methoxy-ethyl)-methyl-carbamoyl]-2-phenyl-ethyl}-N-(4-pyrimidin-5-yl-benzyl)-acrylamide] belongs 21 nM. To `CCN(CC)c1ccc(CN(C)CCN(C)C(=O)[C@H](Cc2ccccc2)N(Cc2ccc(N3CCN(C(C)=O)CC3)cc2)C(=O)C=Cc2ccc(C(F)(F)F)cc2)cc1` [Example 239, (S)-N-[4-(4-Acetyl-piperazin-1-yl)-benzyl]-N-[1-({2-[(4-diethylamino-benzyl)-methyl-amino]-ethyl}-methyl-carbamoyl)-2-phenyl-ethyl]-3-(4-trifluoromethyl-phenyl)-acrylamide] belongs 61 nM. To `COCCN(C)C(=O)[C@H](Cc1ccccc1)N(Cc1ccc(-c2ccncc2)cc1)C(=O)C=Cc1c(C)noc1C` [Example 96, (S)-3-(3,5-Dimethyl-isoxazol-4-yl)-N-{1-[(2-methoxy-ethyl)-methyl-carbamoyl]-2-phenyl-ethyl}-N-(4-pyridin-4-yl-benzyl)-acrylamide] belongs 20 nM; to `CN(CCN(C)C(=O)[C@H](Cc1ccccc1)N(Cc1ccc(-c2ccccn2)cc1)C(=O)C=Cc1ccc(C(F)(F)F)cc1)Cc1ccsc1` [Example 232, (S)-N-(1-{Methyl-[2-(methyl-thiophen-3-ylmethyl-amino)-ethyl]-carbamoyl}-2-phenyl-ethyl)-N-(4-pyridin-2-yl-benzyl)-3-(4-trifluoromethyl-phenyl)-acrylamide], 33 nM. `COCCN(C)C(=O)[C@H](Cc1ccccc1)N(Cc1ccc(N2CCOCC2)cc1)C(=O)C=Cc1csnn1` [Example 66, (S)-N-{1-[(2-Methoxy-ethyl)-methyl-carbamoyl]-2-phenyl-ethyl}-N-(4-morpholin-4-yl-benzyl)-3-[1,2,3]thiadiazol-4-yl-acrylamide]: the IC50 was 494 nM.

As for `CC(=O)N1CCN(c2ccc(CN(C(=O)C=Cc3ccc(C(F)(F)F)cc3)[C@@H](Cc3ccccc3)C(=O)N(C)CCN(C)Cc3nccs3)cc2)CC1` [Example 248, (S)-N-[4-(4-Acetyl-piperazin-1-yl)-benzyl]-N-(1-{methyl-[2-(methyl-thiazol-2-ylmethyl-amino)-ethyl]-carbamoyl}-2-phenyl-ethyl)-3-(4-trifluoromethyl-phenyl)-acrylamide], the IC50 was found to be 21 nM. For `COCCN(C)C(=O)[C@H](Cc1ccccc1)N(Cc1ccc(-c2ccccn2)cc1)C(=O)C=Cc1ccc(C)cn1` [Example 86, (S)-N-{1-[(2-Methoxy-ethyl)-methyl-carbamoyl]-2-phenyl-ethyl}-3-(5-methyl-pyridin-2-yl)-N-(4-pyridin-2-yl-benzyl)-acrylamide] the value was 27 nM; for `CC(=O)Nc1ccc(CN(C)C(=O)[C@H](Cc2ccccc2)N(Cc2ccc(N3CCOCC3)cc2)C(=O)C=Cc2ccc(C(F)(F)F)nc2)cc1` [Example 271], 100 nM.

With `COCCN(C)C(=O)[C@H](Cc1ccccc1)N(Cc1ccc(-c2ccncc2)cc1)C(=O)C=Cc1ccn(C)n1` [Example 91, (S)-N-{1-[(2-Methoxy-ethyl)-methyl-carbamoyl]-2-phenyl-ethyl}-3-(1-methyl-1H-pyrazol-3-yl)-N-(4-pyridin-4-yl-benzyl)-acrylamide], the IC50 stood at 26 nM.

With `O=C(NCCN1CCCCCC1)[C@H](Cc1ccccc1)N(Cc1ccc(-c2ccccn2)cc1)C(=O)C=Cc1ccc(C(F)(F)F)cc1` [Example 154], the IC50 worked out at 420 nM. For `Cc1nc(C=CC(=O)N(Cc2ccc(-c3ccccn3)cc2)[C@@H](Cc2ccccc2)C(=O)N2CCC(N(C)C)CC2)c(C)o1` [Example 13, (S)-N-[1-Benzyl-2-(4-dimethylamino-piperidin-1-yl)-2-oxo-ethyl]-3-(2,5-dimethyl-oxazol-4-yl)-N-(4-pyridin-2-yl-benzyl)-acrylamide] the value was 355 nM; for `CC(=O)N1CCN(c2ccc(CN(C(=O)C=Cc3ccc(C(F)(F)F)cc3)[C@@H](Cc3ccccc3)C(=O)N(C)CCN(C)Cc3ccc(N(C)CCO)cc3)cc2)CC1` [Example 237, (S)-N-[4-(4-Acetyl-piperazin-1-yl)-benzyl]-N-(1-{[2-({4-[(2-hydroxy-ethyl)-methyl-amino]-benzyl}-methyl-amino)-ethyl]-methyl-carbamoyl}-2-phenyl-ethyl)-3-(4-trifluoromethyl-phenyl)-acrylamide], 55 nM.

As for `COCCN(C)C(=O)[C@H](Cc1ccccc1)N(Cc1ccc(N2CCN(C(C)=O)CC2)cc1)C(=O)C=Cc1ccc(C(F)(F)F)cn1` [Example 116, (S)-N-[4-(4-Acetyl-piperazin-1-yl)-benzyl]-N-{1-[(2-methoxy-ethyl)-methyl-carbamoyl]-2-phenyl-ethyl}-3-(5-trifluoromethyl-pyridin-2-yl)-acrylamide], the IC50 was less than 8 nM.

With `O=C([C@H](Cc1ccccc1)N(Cc1ccc(N2CCOCC2)nc1)C(=O)C=Cc1ccc(C(F)(F)F)cc1)N1CCC(Cc2ccccc2)CC1` [Example 143, (S)-N-[1-Benzyl-2-(4-benzyl-piperidin-1-yl)-2-oxo-ethyl]-N-(6-morpholin-4-yl-pyridin-3-ylmethyl)-3-(4-trifluoromethyl-phenyl)-acrylamide], the IC50 is 5 nM. For `Cc1nc(C)c(C=CC(=O)N(Cc2ccc(-c3ccccn3)cc2)[C@@H](Cc2ccccc2)C(=O)N2CCC(N(C)C)CC2)s1` [Example 10, (S)-N-[1-Benzyl-2-(4-dimethylamino-piperidin-1-yl)-2-oxo-ethyl]-3-(2,4-dimethyl-thiazol-5-yl)-N-(4-pyridin-2-yl-benzyl)-acrylamide], the IC50 was 176 nM.

Turning to `CC(=O)N1CCN(c2ccc(CN(C(=O)C=Cc3ccc(C(F)(F)F)cc3)[C@@H](Cc3ccccc3)C(=O)N(C)CCN(C)Cc3cnc[nH]3)cc2)CC1` [Example 252, (S)-N-[4-(4-Acetyl-piperazin-1-yl)-benzyl]-N-[1-({2-[(3H-imidazol-4-ylmethyl)-methyl-amino]-ethyl}-methyl-carbamoyl)-2-phenyl-ethyl]-3-(4-trifluoromethyl-phenyl)-acrylamide], the IC50 is 80 nM. To `CC(=O)N1CCN(c2ccc(CN(C(=O)C=Cc3ccc(C(F)(F)F)cc3)[C@@H](Cc3ccccc3)C(=O)N(C)CCN(C)Cc3ccncc3)cc2)CC1` [Example 253, (S)-N-[4-(4-Acetyl-piperazin-1-yl)-benzyl]-N-(1-{methyl-[2-(methyl-pyridin-4-ylmethyl-amino)-ethyl]-carbamoyl}-2-phenyl-ethyl)-3-(4-trifluoromethyl-phenyl)-acrylamide] belongs 19 nM.
